The text below walks through data of PubChem BioAssay AID330 (DTP/NCI, 2004).

The subject of the experiment is P388 leukemia ip, CD2F1 mice, survival T/C. The experiment in a line: NCI In Vivo Anticancer Drug Screen. Data for tumor model P388 Leukemia (intraperitoneal) in CD2F1 (CDF1) mice. As to conditions: endpoint: median survival time, higher = longer survival. An outline of the steps: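 Mice carrying the transplanted tumor received test compound or vehicle. Survival was recorded in each group, and the value is the treated-group measurement divided by that of the vehicle-treated control group.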

[1] abbreviates: dose: 50.0 mg/kg/injection, schedule: Q01DX005 (ip), vehicle: saline with Tween-80.
Where [2] appears, read: dose: 25.0 mg/kg/injection, schedule: Q01DX009 (ip), vehicle: water.
[3] abbreviates: dose: 60.0 mg/kg/injection, schedule: Q01DX005 (ip), vehicle: Klucel (hydroxypropylcellulose) (HPC).
Setting [4] is: dose: 120.0 mg/kg/injection, schedule: Q01DX005 (ip), vehicle: Klucel (hydroxypropylcellulose) (HPC).

Several values for one entry are separate records, joined by “and”; a condition that tells them apart may be missing. Equal values may be shown once. Toxic doses and inconclusive results are not listed.

As to `COc1cc2c(OC)c(c1)CCCC1=CC(=O)C=C(CCC2)C1=O`, the T/C under setting [1] was 94 % of control; the T/C (dose: 100.0 mg/kg/injection, schedule: Q01DX001 (ip), vehicle: Klucel (hydroxypropylcellulose) (HPC)) is 92 % of control; the T/C (dose: 100.0 mg/kg/injection, schedule: Q01DX005 (ip), vehicle: saline with Tween-80) is 103 % of control; the T/C (dose: 200.0 mg/kg/injection, schedule: Q01DX001 (ip), vehicle: Klucel (hydroxypropylcellulose) (HPC)) is 100 % of control; the T/C (dose: 200.0 mg/kg/injection, schedule: Q01DX005 (ip), vehicle: saline with Tween-80) was 100 % of control; the T/C (dose: 400.0 mg/kg/injection, schedule: Q01DX001 (ip), vehicle: Klucel (hydroxypropylcellulose) (HPC)) was 90 % of control.
On to `COc1ccc2nc3cc(Cl)ccc3c(NCCCN3CCCC3)c2n1`, for which the T/C was 102 % of control (dose: 12.5 mg/kg/injection, schedule: Q01DX009 (ip), vehicle: water) and 102 % of control under setting [2].
Take `Cc1cc(C(O)(C(F)(F)F)C(F)(F)F)c(N)c(C(O)(C(F)(F)F)C(F)(F)F)c1`: the T/C is, setting by setting: (dose: 50.0 mg/kg/injection, schedule: Q01DX005 (ip), vehicle: Klucel (hydroxypropylcellulose) (HPC)) 104 % of control; (dose: 100.0 mg/kg/injection, schedule: Q01DX005 (ip), vehicle: Klucel (hydroxypropylcellulose) (HPC)) 103 % of control.
As for `CSC(=S)N/N=C(\C)Cc1ccccn1`, the T/C is, setting by setting: (dose: 12.5 mg/kg/injection, schedule: Q01DX005 (ip), vehicle: saline with Tween-80) 102 % of control; (dose: 25.0 mg/kg/injection, schedule: Q01DX005 (ip), vehicle: saline with Tween-80) 100 % of control; under setting [1], 101 % of control and 95 % of control.
Take `C[n+]1cccc2c1-c1c(ccc[n+]1C)C2`: the T/C is 108 % of control (dose: 50.0 mg/kg/injection, schedule: Q01DX005 (ip), vehicle: saline); 105 % of control (dose: 100.0 mg/kg/injection, schedule: Q01DX005 (ip), vehicle: saline); 104 % of control (dose: 200.0 mg/kg/injection, schedule: Q01DX005 (ip), vehicle: saline).
On to `O=[N+]([O-])c1ccc(S(=O)(=O)OI(O)c2ccccc2)cc1`, for which the T/C under setting [2] was 104 % of control and 105 % of control; the T/C (dose: 50.0 mg/kg/injection, schedule: Q01DX009 (ip), vehicle: water) is 98 % of control and 120 % of control and 96 % of control; the T/C (dose: 100.0 mg/kg/injection, schedule: Q01DX009 (ip), vehicle: water) was 100 % of control and 101 % of control and 91 % of control.
As to `Cc1c(C)n2c(=O)n(-c3ccccc3)c(=O)n2c1=O`, the T/C reads like this: under setting [3], 99 % of control; under setting [4], 99 % of control; (dose: 240.0 mg/kg/injection, schedule: Q01DX005 (ip), vehicle: Klucel (hydroxypropylcellulose) (HPC)) 99 % of control.
`CCCCC(CC)C[N+]1(C)CCOCC1` (stereo not drawn): the T/C was 100 % of control (dose: 12.5 mg/kg/injection, schedule: Q01DX009 (ip), vehicle: saline); 100 % of control (dose: 25.0 mg/kg/injection, schedule: Q01DX009 (ip), vehicle: saline); 94 % of control (dose: 50.0 mg/kg/injection, schedule: Q01DX009 (ip), vehicle: saline).
For `CCOC(=O)C(NC(=O)C(Cc1ccc(N(CCCl)CCCl)cc1)NC(C)=O)C(C)C` (stereo not drawn), the T/C (dose: 3.13 mg/kg/injection, schedule: Q04DX003 (ip), vehicle: saline) is 100 % of control; the T/C (dose: 6.25 mg/kg/injection, schedule: Q04DX003 (ip), vehicle: saline) is 109 % of control; the T/C (dose: 12.5 mg/kg/injection, schedule: Q04DX003 (ip), vehicle: saline) is 118 % of control; the T/C (dose: 25.0 mg/kg/injection, schedule: Q01DX009 (ip), vehicle: saline with Tween-80) is 160 % of control; the T/C (dose: 50.0 mg/kg/injection, schedule: Q01DX009 (ip), vehicle: saline with Tween-80) was 180 % of control; the T/C (dose: 50.0 mg/kg/injection, schedule: Q04DX003 (ip), vehicle: saline with Tween-80) was 159 % of control. The T/C (dose: 100.0 mg/kg/injection, schedule: Q01DX009 (ip), vehicle: saline with Tween-80) is 245 % of control; the T/C (dose: 100.0 mg/kg/injection, schedule: Q04DX003 (ip), vehicle: saline with Tween-80) is 163 % of control and 175 % of control; the T/C (dose: 150.0 mg/kg/injection, schedule: Q04DX003 (ip), vehicle: other) is 151 % of control; the T/C (dose: 160.0 mg/kg/injection, schedule: Q04DX003 (ip), vehicle: other) was 161 % of control; the T/C (dose: 200.0 mg/kg/injection, schedule: Q04DX003 (ip), vehicle: saline with Tween-80) is 154 % of control; the T/C (dose: 300.0 mg/kg/injection, schedule: Q04DX003 (ip), vehicle: other) is 174 % of control. In addition, where the note is “dose: 400.0 mg/kg/injection, schedule: Q04DX003 (ip), vehicle: other”, the T/C is 159 % of control.
As for `CCOC(=O)c1csc(/C=C/c2cc(OC)c(OC)c(OC)c2)n1`, the T/C by setting is: (dose: 60.0 mg/kg/injection, schedule: Q01DX005 (ip), vehicle: saline with Tween-80) 105 % of control; (dose: 120.0 mg/kg/injection, schedule: Q01DX005 (ip), vehicle: saline with Tween-80) 100 % of control; (dose: 240.0 mg/kg/injection, schedule: Q01DX005 (ip), vehicle: saline with Tween-80) 92 % of control.
For `COC(=O)c1nc(N)nc(C(=O)OC)c1C(=O)c1ccc(Cl)cc1`, the T/C is 103 % of control under setting [3] and 101 % of control under setting [4].
